Assay results taken from patent US8106208B2, “Benzamide compounds that act as NK receptor antagonists” (Albireo AB, priority 2006, dated 2012).

How the values were obtained:
human NK1 receptor = molecular target: T1, human NK1 receptor (Homo sapiens, UniProt P25103); experiment: FLIPR assay, inhibition of human NK1 receptor activation (intracellular Ca2+ increase); assay type: cell-based; details: CHO cells with human NK1 receptor; agonist Substance P; pKB converted from IC50
T1 construct: expressed in transfected cells; from AstraZeneca R&D Wilmington
Experimental: (§1) Chinese Hamster Ovary (CHO) K1 cells (obtained from ATCC) were stably transfected with the human NK2 receptor (hNK2R cDNA in pRc/CMV, Invitrogen) or the human NK3 receptor (hNK3R in pcDNA 3.1/Hygro (+)/IRES/CD8, Invitrogen vector modified at AstraZeneca EST-Bio UK, Alderley Park). The cells were transfected with the cationic lipid reagent LIPOFECTAMINE™ (Invitrogen) and selection was performed with Geneticin (G418, Invitrogen) at 1 mg/ml for the hNK2R transfected cells and with Hygromycin (Invitrogen) at 500 μg/ml for the hNK3R transfected cells. Single cell clones were collected by aid of Fluorescence Activated Cell Sorter (FACS), tested for functionality in a FLIPR assay (see below), expanded in culture and cryopreserved for future use. CHO cells stably transfected with human NK1 receptors originates from AstraZeneca R&D, Wilmington USA. Human NK1 receptor cDNA (obtained from RNA-PCR from lung tissue) was subcloned into pRcCMV (Invitrogen). Transfection was performed by Calcium Phosphate and selection with 1 mg/ml G418. […]
(§2) The activity of a compound of the invention to inhibit NK1/NK2/NK3 receptor activation measured as NK1/NK2/NK3 receptor mediated increase in intracellular Ca^2+ was assessed by the following procedure: […]

human NK2 receptor = molecular target: T2, human NK2 receptor (Homo sapiens, UniProt P21452); experiment: FLIPR assay, inhibition of human NK2 receptor activation (intracellular Ca2+ increase); assay type: cell-based; details: CHO cells with human NK2 receptor; agonist NKA; pKB converted from IC50
T2 construct: expressed in transfected cells
T2 sequence (P21452 1-398): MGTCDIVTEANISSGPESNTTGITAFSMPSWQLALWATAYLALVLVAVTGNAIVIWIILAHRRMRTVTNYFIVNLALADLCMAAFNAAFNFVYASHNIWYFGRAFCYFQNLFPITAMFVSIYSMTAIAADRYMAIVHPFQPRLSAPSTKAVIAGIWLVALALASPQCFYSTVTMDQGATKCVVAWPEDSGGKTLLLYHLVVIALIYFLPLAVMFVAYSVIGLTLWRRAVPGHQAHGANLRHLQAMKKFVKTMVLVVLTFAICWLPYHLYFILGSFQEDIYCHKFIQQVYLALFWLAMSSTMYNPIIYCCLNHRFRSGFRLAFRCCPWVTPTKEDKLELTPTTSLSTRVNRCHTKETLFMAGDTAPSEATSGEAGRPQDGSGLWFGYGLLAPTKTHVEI
Experimental: as §1, §2

CYP3A4 = CYP3A4 (Homo sapiens, UniProt P08684); experiment: CYP3A4 inhibition (according to Bapiro et al.); assay type: in vitro ADME
Experimental: The IC50 values tested according to Bapiro et al; Drug Metab. Dispos. 29, 30-35 (2001) were generally greater than 10 μM.

[1] = molecular target: hERG-encoded potassium channel (Homo sapiens, UniProt Q12809); experiment: Activity against hERG (planar-array-based voltage clamp, Kiss et al.); assay type: cell-based
From the text: The activity of compounds according to formula I against the hERG-encoded potassium channel can be determined according to Kiss L, et al. Assay Drug Dev Technol. 1 (2003), 127-35: “High throughput ion-channel pharmacology: planar-array-based voltage clamp”.

human NK3 receptor = molecular target: T3, human NK3 receptor (Homo sapiens, UniProt P29371); experiment: FLIPR assay, inhibition of human NK3 receptor activation (intracellular Ca2+ increase); assay type: cell-based; details: CHO cells with human NK3 receptor; agonist Pro-7-NKB; pKB converted from IC50
T3 construct: expressed in transfected cells
T3 sequence (P29371 1-465): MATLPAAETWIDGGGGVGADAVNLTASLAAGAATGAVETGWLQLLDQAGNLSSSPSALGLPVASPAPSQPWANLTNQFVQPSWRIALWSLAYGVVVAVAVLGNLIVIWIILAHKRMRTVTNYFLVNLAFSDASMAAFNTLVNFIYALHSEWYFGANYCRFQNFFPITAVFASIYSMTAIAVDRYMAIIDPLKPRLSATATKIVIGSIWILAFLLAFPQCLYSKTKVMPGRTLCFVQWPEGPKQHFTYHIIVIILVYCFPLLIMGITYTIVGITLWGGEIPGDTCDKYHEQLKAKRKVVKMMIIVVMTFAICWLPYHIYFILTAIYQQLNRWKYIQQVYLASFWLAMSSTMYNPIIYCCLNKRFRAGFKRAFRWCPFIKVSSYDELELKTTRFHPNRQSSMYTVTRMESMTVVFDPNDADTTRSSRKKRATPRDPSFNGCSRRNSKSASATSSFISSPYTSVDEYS
Experimental: as §1, §2

[2] = Metabolic stability in liver microsomes (intrinsic clearance); assay type: in vitro ADME; details: human, pH 7.4, 37° C., read-out: CLint (HLM)
Experimental: The rate of biotransformation can be measured as either metabolite(s) formation or the rate of disappearance of the parent compound. The experimental design involves incubation of low concentrations of substrate (usually 1.0 μM) with liver microsomes (usually 0.5 mg/ml) and taking out aliquots at varying time points (usually 0, 5, 10, 15, 20, 30, 40 min.). The test compound is usually dissolved in DMSO. The DMSO concentration in the incubation mixture is usually 0.1% or less since more solvent can drastically reduce the activities of some CYP450s. Incubations are done in 100 mM potassium phosphate buffer, pH 7.4 and at 37° C. Acetonitrile or methanol is used to stop the reaction. The parent compound is analysed by HPLC-MS. From the calculated half-life, t1/2, the intrinsic clearance, Clint, is estimated by taking microsomal protein concentration and liver weight into account.

[3] = tested on: Human Neurokinin-2 (NK2) Receptor; details: Bioorganic & Medicinal Chemistry Letters (2003), 13, 2211-2215; cited from earlier work

T1 sequence (P25103 whole entry): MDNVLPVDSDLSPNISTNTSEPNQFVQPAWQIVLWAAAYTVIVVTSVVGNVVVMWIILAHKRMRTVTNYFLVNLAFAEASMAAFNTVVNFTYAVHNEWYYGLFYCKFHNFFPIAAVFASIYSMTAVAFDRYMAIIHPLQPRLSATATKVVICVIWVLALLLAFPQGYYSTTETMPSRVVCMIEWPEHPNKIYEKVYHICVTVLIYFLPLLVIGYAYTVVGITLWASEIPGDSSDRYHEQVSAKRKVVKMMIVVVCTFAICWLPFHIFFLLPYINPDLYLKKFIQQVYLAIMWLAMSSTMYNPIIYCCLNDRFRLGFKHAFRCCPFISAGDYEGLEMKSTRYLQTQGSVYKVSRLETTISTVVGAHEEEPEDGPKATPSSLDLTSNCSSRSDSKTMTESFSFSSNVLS
CYP3A4, sequence (P08684 whole entry): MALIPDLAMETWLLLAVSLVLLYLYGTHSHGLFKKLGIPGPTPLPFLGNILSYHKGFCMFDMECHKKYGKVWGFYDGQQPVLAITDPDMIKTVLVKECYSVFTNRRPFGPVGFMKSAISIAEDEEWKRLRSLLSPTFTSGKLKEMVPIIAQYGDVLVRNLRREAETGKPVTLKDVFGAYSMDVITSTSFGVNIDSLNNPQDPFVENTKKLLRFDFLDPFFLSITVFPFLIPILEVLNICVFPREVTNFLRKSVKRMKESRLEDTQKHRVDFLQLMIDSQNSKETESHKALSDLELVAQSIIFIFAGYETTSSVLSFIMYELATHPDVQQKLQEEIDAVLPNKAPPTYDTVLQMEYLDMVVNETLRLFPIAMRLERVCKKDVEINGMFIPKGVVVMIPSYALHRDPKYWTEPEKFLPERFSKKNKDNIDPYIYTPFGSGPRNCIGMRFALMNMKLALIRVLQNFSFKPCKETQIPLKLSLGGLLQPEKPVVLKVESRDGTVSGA
hERG-encoded potassium channel, sequence (Q12809 whole entry): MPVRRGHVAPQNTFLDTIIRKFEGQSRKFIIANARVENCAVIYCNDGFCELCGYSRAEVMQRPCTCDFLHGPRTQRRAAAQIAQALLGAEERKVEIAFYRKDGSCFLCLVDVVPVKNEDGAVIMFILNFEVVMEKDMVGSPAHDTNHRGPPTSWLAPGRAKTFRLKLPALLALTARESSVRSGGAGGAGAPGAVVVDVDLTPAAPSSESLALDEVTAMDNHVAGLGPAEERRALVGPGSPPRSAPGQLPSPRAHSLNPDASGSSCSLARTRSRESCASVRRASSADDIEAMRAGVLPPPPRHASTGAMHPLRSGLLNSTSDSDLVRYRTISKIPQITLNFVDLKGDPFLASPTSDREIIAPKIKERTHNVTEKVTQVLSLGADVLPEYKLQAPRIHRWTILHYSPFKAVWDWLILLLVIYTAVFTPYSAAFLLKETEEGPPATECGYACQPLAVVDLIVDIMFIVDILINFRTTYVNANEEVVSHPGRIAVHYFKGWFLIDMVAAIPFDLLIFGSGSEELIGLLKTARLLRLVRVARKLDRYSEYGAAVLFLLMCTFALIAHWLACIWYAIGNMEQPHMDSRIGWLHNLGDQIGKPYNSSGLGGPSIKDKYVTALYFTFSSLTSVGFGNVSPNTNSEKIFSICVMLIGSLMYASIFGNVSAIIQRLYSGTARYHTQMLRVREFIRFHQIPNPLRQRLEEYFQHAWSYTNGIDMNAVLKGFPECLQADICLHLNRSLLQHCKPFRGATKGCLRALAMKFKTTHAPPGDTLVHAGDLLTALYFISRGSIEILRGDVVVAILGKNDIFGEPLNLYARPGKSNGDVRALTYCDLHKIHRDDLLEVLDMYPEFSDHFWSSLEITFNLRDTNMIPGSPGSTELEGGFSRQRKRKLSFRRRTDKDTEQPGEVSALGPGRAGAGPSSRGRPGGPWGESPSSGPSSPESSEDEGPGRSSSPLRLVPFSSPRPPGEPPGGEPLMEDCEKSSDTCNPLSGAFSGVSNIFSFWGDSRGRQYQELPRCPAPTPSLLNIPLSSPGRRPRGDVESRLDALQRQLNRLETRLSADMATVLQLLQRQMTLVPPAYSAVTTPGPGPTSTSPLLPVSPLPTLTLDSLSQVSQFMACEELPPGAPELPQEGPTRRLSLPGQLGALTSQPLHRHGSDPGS

Kb (human NK1 receptor) [nM]	Kb (human NK2 receptor) [nM]	IC50 (CYP3A4) [nM]	Kb (human NK3 receptor) [nM]	microsomal CLint at 1 μM [2] [µL/min/mg]	Structure (SMILES)	IC50 [1] [nM]	functional NK2 receptor antagonistic properties [3]
20	2.51	13500	3.98	23	CN(C[C@@H](CCN1CC(N2CCC(C(=O)N3CCC3)CC2)C1)c1ccc(F)cc1)C(=O)c1cc(Br)cc(C(F)(F)F)c1 [Ex 1, N-[(2S)-4-{3-[4-(Azetidin-1-ylcarbonyl)piperidin-1-yl]azetidin-1-yl}-2-(4-fluorophenyl)butyl]-3-bromo-N-methyl-5-(trifluoromethyl)benzamide]	11000	–
–	–	–	–	–	CN(CC(CCN1CC(N2CCOCC2)C1)c1ccc(Cl)c(Cl)c1)C(=O)c1ccccc1 (stereo not shown) [N-[2-(3,4-dichlorophenyl)-4-(3-morpholin-4-ylazetidin-1-yl)butyl]-N-methylbenzamide]	–	functional NK2 receptor antagonistic properties
